Where “and” joins values, the source holds several entries; their conditions need not be identical. Equal values may be shown once.
Molecular target: T1, PHD2 (Homo sapiens, UniProt Q9GZT9)
T1 construct: The catalytic domain of PHD2 (residues 181–426) was purified as described; made in house
Test: Stopped-flow UV-visible spectroscopy, PHD2·Fe(II)·2OG·substrate + O2
Type: biochemical
Conditions: anaerobic 0.8 mM PHD2, 1 mM peptide, 5 mM 2OG, 50 mM HEPES pH 7.5, mixed 1:1 with O2-saturated buffer at 5 °C, double exponential fit; for Stopped-flow, 520 nm (PHD2) kfall phase: traces average of triplicate
Experimental: Stopped-flow UV-visible spectroscopy experiments were performed as described previously ([32], [42]). […] The reaction was observed over 1000 s using a photodiode array detector, and kinetic traces were analyzed using Origin version 8.51 software. Data were fitted with a double exponential function (y = A1 × exp(−kriset) + A2 × exp(−kfallt) + y0). The A1, A2, and y0 parameters were restricted with upper limits to match the observed amplitude/offset changes.
Previously reported pre-steady-state kinetic studies on PHD2 focused on its reaction with CODD HIF-1α 19-mer peptide ([38], [42]); there is no reported information on the rates of PHD2 reaction with O2 in the presence of NODD HIF-1α or HIF-2α substrates. To ascertain whether a slow reaction with O2 under pre-steady-state conditions is common to PHD2-catalyzed hydroxylation of both CODD and NODD, we investigated the reaction of PHD2 with NODD substrates in comparison with CODD for both HIF-1α and HIF-2α. Pre-steady-state reactions of PHD2 were initiated by rapid mixing of anaerobic PHD2·Fe(II)·2OG·HIF-α complexes with O2-saturated buffer at 5 °C. Reactions were initially observed using a photodiode array detector, and difference spectra (in comparison with the reaction with O2-free buffer) were subsequently analyzed.
FIGURE 5. Pre-steady-state kinetics of PHD2-catalyzed HIF-1/2α hydroxylation. […] B, stopped-flow kinetic traces at 520 nm showing absorbance changes in control experiments: Fe(II) only, mix of Fe(II) and 2OG, reaction of PHD2·Fe(II)·2OG complex with O2 in the absence of CODD; reaction of PHD2·Fe(II)·N-oxalylglycine (NOG)·CODD complex with O2. N-Oxalylglycine is an inhibitor of 2OG oxygenases. […] The kinetic traces represent the average of triplicate assays. E, HIF-1/2α peptide hydroxylation, as determined by MALDI-TOF-MS. Reactions were quenched with 1% CF3CO2H at defined time points.

T1 sequence (Q9GZT9 181-426): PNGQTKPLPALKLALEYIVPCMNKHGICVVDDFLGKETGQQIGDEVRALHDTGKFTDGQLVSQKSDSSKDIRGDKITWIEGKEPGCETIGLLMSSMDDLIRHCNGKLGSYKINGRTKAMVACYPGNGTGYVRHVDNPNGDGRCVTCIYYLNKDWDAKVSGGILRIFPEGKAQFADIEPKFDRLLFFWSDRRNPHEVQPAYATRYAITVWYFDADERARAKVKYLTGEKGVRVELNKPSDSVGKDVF

Sequence: EELAQLAPTPGDAIISLDF [HIF-2α NODD, 19-mer fragment (398–416) of the HIF-2α N-terminal oxygen-dependent degradation domain, PHD2 substrate]
- Stopped-flow, 520 nm (PHD2) krise phase: 0.003 ± 0.001 s⁻¹
- Stopped-flow, 520 nm (PHD2) kfall phase (listed as NODD HIF-2α): 0.195 ± 0.003 s⁻¹ and 0.195 ± 0.009 s⁻¹

Sequence: ELDLETLAPYIPMDGEDFQ [HIF-2α CODD, 19-mer fragment (523–541) of the HIF-2α C-terminal oxygen-dependent degradation domain, PHD2 substrate]
- Stopped-flow, 520 nm (PHD2) krise phase: 0.027 ± 0.001 s⁻¹
- Stopped-flow, 520 nm (PHD2) kfall phase: 0.450 ± 0.010 s⁻¹

— article PMC4528135, “Kinetic Investigations of the Role of Factor Inhibiting Hypoxia-inducible Factor (FIH) as an Oxygen Sensor” (The Journal of Biological Chemistry, 2015)
